We go through two molecules from ChEMBL document CHEMBL3044813, “Bloodbrain barrier permeability and transport studies of JLK1486: a new antiglioblastoma drug” (Med Chem Res, 2012).

Activity calls are given as the source filed them. No cut-off for these calls is given here.

In series [1] the test system is Glioma. The series can be described thus: Antitumor activity against Homo sapiens (human) Glioma cells xenografted in transgenic mouse assessed as mouse survival. It counts as functional, cell-based.
Series [2] concerns the target T1, ATP-dependent translocase ABCB1 (Homo sapiens, UniProt P08183). Description: Inhibition of Progesterone-induced P-gp ATPase activity (unknown origin) at 1 uM by spectrophotometry (reference value: 61.5 nmol/mg/min).
Series [3] relates to Cerebrospinal fluid. The series can be described thus: Drug uptake in Rattus norvegicus Sprague-Dawley (rat) CSF at 10 mg/kg, iv after 1 hr by HPLC analysis. To be noted: in vivo. It counts as ADME, organism-based. Further details: dose 10 mg/kg, route intravenous.
In series [4] the target is T1, ATP-dependent translocase ABCB1. The series can be described thus: Modulation of P-gp ATPase activity (unknown origin) at 10 uM by spectrophotometry (RvB = 30.2 nmol/mg/min).
Series [5] has the same target. The series can be described thus: Inhibition of Vinblastine-induced P-gp ATPase activity (unknown origin) at 10 uM by spectrophotometry (reference value: 42.8 nmol/mg/min).
The target is the same in series [6]. Description: Modulation of P-gp ATPase activity (unknown origin) at 1 uM by spectrophotometry (RvB = 30.2 nmol/mg/min).
For series [7] the target is unchanged. The series can be described thus: Inhibition of Verapamil-induced P-gp ATPase activity (unknown origin) at 10 uM by spectrophotometry (reference value: 90.7 nmol/mg/min).
For series [8] the target is unchanged. The series can be described thus: Inhibition of Verapamil-induced P-gp ATPase activity (unknown origin) at 1 uM by spectrophotometry (reference value: 90.7 nmol/mg/min).
For series [9] the target is unchanged. Description: Inhibition of Progesterone-induced P-gp ATPase activity (unknown origin) at 10 uM by spectrophotometry (reference value: 61.5 nmol/mg/min).
Series [10] shares this target. The series can be described thus: Inhibition of Vinblastine-induced P-gp ATPase activity (unknown origin) at 1 uM by spectrophotometry (reference value: 42.8 nmol/mg/min).
The subject of series [11] is Brain. The series can be described thus: Drug uptake in Rattus norvegicus Sprague-Dawley (rat) brain at 10 mg/kg, iv by HPLC analysis. Type of series: ADME, organism-based. Also noted: dose 10 mg/kg, route intravenous. To be noted: in vivo.
The test system of series [12] is Blood brain barrier. The series can be described thus: Permeability across blood brain barrier of Rattus norvegicus Sprague-Dawley (rat) at 10 mg/kg, iv. Type of series: ADME, organism-based. Further details: dose 10 mg/kg, route intravenous. To be noted: in vivo.

T1 sequence (P08183 whole entry): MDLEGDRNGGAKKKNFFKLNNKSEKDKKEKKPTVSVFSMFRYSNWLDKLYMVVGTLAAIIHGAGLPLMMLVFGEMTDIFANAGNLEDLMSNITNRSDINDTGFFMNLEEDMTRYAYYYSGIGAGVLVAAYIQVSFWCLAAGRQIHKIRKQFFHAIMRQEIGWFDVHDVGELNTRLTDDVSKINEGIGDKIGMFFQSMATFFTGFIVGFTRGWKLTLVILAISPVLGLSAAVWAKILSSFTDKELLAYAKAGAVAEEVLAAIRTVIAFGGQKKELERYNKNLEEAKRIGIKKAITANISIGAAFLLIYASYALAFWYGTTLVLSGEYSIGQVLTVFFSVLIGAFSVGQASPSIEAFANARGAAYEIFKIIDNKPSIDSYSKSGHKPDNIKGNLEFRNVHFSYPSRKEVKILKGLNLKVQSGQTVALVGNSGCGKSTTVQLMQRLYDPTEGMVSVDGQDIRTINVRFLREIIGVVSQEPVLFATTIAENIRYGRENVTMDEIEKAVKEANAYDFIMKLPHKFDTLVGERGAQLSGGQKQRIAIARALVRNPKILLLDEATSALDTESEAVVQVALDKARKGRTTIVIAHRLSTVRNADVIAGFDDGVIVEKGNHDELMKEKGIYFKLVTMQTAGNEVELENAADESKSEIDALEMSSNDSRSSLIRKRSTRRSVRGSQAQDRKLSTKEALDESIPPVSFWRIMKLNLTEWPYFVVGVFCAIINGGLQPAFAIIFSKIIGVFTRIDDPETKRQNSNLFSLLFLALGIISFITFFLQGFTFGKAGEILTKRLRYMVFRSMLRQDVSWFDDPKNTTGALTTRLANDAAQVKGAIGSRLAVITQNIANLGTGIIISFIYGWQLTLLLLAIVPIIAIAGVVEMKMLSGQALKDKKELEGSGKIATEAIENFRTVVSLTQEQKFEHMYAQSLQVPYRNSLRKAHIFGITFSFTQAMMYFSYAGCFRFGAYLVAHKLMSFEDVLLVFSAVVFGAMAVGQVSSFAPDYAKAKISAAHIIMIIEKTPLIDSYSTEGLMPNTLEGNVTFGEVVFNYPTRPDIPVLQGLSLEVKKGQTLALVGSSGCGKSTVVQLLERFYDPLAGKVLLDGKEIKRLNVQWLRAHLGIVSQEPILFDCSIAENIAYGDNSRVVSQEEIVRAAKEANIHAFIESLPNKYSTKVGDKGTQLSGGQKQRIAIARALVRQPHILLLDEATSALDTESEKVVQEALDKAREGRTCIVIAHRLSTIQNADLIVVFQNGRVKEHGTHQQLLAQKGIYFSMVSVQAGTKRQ

For the molecule `Oc1ccc(CN(Cc2ccc(C(F)(F)F)cc2)Cc2ccc(O)c3ncccc23)c2cccnc12`, in series [1], the outcome was Active. Also, the Activity in [2] is on record as 54.8 nmol/mg/min; in series [4] it was 33.1 nmol/mg/min; in series [5] it was 30.8 nmol/mg/min; in [6], 31.3 nmol/mg/min; in [7], 77.1 nmol/mg/min; in series [8] it was 84.5 nmol/mg/min. In addition, the Activity was found to be 51.8 nmol/mg/min in [9] and 34.3 nmol/mg/min in series [10]. The values for the Drug uptake in series [3] and in [11] were 0.037% and 2.2%, respectively.

In the case of `Cn1nnc2c(C(N)=O)ncn2c1=O` [TEMOZOLOMIDE], the outcome in [1] was Active. Besides, the pBBB in series [12] came out at 2.7 ×10⁻³ cm/s.
